Test results published in patent publication US10357438B2, “Metal salt compositions” (Colgate-Palmolive Company, priority 2014, dated 2019).

The substances below were run on five species, planktonic mix of representative oral species (Actinomyces viscosus, Lactobacillus casei, Streptococcus oralis, Fusobacterium nucleatum, and …) (assay: Resazurin bacterial inhibition assay). Settings: 1% elemental Zn final concentration; 1 h incubation; resazurin fluorescence.
Assay type: cell-based
Description: The antibacterial activity of the Zn2CitCl (dizinc citrate chloride) complex was compared against zinc citrate (ZnCit) using the resazurin bacterial inhibition assay. In order to test this hypothesis, we used an assay we have developed based on the metabolic indicator dye resazurin. […] A five species, planktonic mix of representative oral species is used in this assay (Actinomyces viscosus, Lactobacillus casei, Streptococcus oralis, Fusobacterium nucleatum, and Veillonella parvula). Bacteria are incubated with the test solution for 1 h prior to staining with 50 μg/ml of resazurin solution. When viable, metabolically active bacteria are incubated with resazurin, the blue, non-fluorescent dye is reduced by the bacteria to the pink fluorescent dye resrufin. Fluorescence of test samples are read at 560 nm excitation/590 nm emission and compared to the fluorescence of standard mixes of live and dead bacteria to determine the percentage of the initial population that remained viable following treatment. Samples were tested at a final concentration of 1% elemental Zn for each compound indicated.

Substance | % viability [%]
basic sodium dizinc citrate chloride | 3.3
basic sodium zinc citrate | 7.0
sodium zinc citrate | 5.9
